Source: patent US20020025307A1, “Bone sialoprotein based toxic gene therapy for the treatment of calcified tumors and tissues” (priority 1998, published 2002)

How the values were obtained:
[1] = Body weight of experimental animals in the PC-3 tumor study; type: in vivo, athymic nude (nu/nu) mice; settings: nude mice bearing PC3 tumors; intratumoral Ad-BSP-TK; GCV 40 mg/kg i.p.
Text: FIG. 10 represents an in vivo experiment performed with 16 animals. Briefly, congenitally athymic nude (nu/nu) mice (Harlan Co., Houston, Tex.) 5 to 6 weeks of age, were inoculated s.c. with 2 million PC3 prostate cancer cells. When the tumor became palpable (4-5 mm in diameter), approximately 10 days after cell injection, the animals were randomly assigned to four experimental groups: group: 1, control group with no treatment; 2, intratumoral PBS on days 10, 17, 24 and 30; 3, Ad-BSP-TK only; and 4, Ad-BSP-TK plus GCV given on days 10-40. For Ad-BSP-TK injections, a microliter syringe fitted with a 28 gauge needle was used to deliver 75 μl of Ad-BSP-TK (1×10^9 plaque-forming units). The Ad-BSP-TK was injected intratumorally along both the long and short axes of the tumor; one injection parallel to the long axis, and one perpendicular to the axis. The needle point was then rotated within the tumor to maximize the area of Ad delivery. Tumor volume was calculated by the following formula: volume (a rotational ellipsoid)-M1xM2^2×0.5236 (M1, long axis; M2, short axis; Ko. S-C., Gotoh, A., Thalmann, G. N., Zhou, H. E., Johnston, D. A, Zhang, W. W., Kao, C., and Chung, L. W. K. Molecular therapy with recombinant p53 adenovirus in an androgen independent, metastatic human prostate cancer model. Hum. Gene Ther., 7:1683-1691, 1996). […]

[2] = system: BSP promoter; assay: BSP promoter-driven luciferase reporter activity in transfected cells; type: cell-based, human; settings: mineralization conditions versus T media, 2186 base pair construct
Protocol: Cells ([…]) were exposed to a BSP promoter-luciferase vector (2.5 ug) with liposome mediated transfection for 4-6 hours, then allowed to grow approximately 2 days at which time cell lysates were obtained and assayed for relative luciferase activity (RLU). All values were standardized with cotransfection of CMV-betagalactosidase reporter plasmid (0.5 ug).

Structure (SMILES)	effect on body weight [1]	BSP promoter expression as RLU ([2]; C4-2B4)	BSP promoter expression as RLU ([2]; Du-145)	BSP promoter expression as RLU ([2]; PC-3)
Nc1nc(O)c2ncn(COC(CO)CO)c2n1 [GCV, Gancyclovir]	did not adversely affect the body weight			
O=C1O[C@H]([C@@H](O)CO)C(O)=C1O [L-ascorbic acid]		hightened response	hightened response	hightened response
